Two sequences from US6303292A, “Immunoreactive polypeptide compositions” (Chiron Corporation, priority 1998, dated 2001) can be followed below.

The subject of the test is antibodies in the Q1 and Q3 plasma (patient Q). The test can be described thus: ELISA on Q1 and Q3 specific 12-mer peptides reacted with Q1 and Q3 plasma. To be noted: for binding of plasma to the peptide versus background binding to a panel of 12 randomly chosen control peptides (Student's Test): Q1/Q3 plasma. It is filed as binding, human. How it is done: Polystyrene plates (Nunc immuno plate maxisorb F96) were coated with streptavidin by incubating overnight at 4° C. with 0.1 ml/well of a 5 μg/ml solution of streptavidin (Sigma Cat. No. S4762) in 0.1 M carbonate buffer at pH 9.6. After removal of the streptavidin solution, the wells were washed four times with a 0.1% solution of Tween 20 in PBS. Nonspecific binding was blocked by incubating each well with 0.2 ml of 2% BSA in PBS for 1 h at 20° C. The wells were again washed four times with PBS/Tween 20. Plates were air-dried and stored at 4° C. until required. The streptavidin in each well was coupled to cleaved peptides by incubation with 100 μl of a 1:100 dilution of cleaved peptide solution with 0.1% BSA in PBS containing 0.1% sodium azide for 1 h at 20° C. After incubation, the plate was washed four times with PBS/Tween 20. Each well was incubated with 100 μl of a suitable dilution of serum (diluted with 2% BSA in PBS containing 0.1% sodium azide) for 1 h at 20° C. or overnight at 4° C. followed by four washes with PBS/Tween 20. Bound antibody was detected by reaction for 1 h at 20° C. in 0.1 ml conjugate. This consisted of 0.25 ml/l (a saturating level) of horseradish peroxidase-labeled goat anti-rabbit IgG (H+L) (Kirkegaard and Perry Labs, Gaithersburg, Md.) in CASS (0.1% sheep serum, 0.1% Tween 20, 0.1% sodium caseinate diluted in 0.1M PBS, pH 7.2). The wells were washed 2 times with PBS/Tween 20 followed by two washes with PBS only. The presence of enzyme was detected by reaction for 45 min at 20° C. with 0.1 ml of a freshly-prepared solution containing 50 mg of ammonium 2,2'azino-bis[3-ethylbenzothiazoline-6-sulphonate (ABTS, Boehringer Mannheim Cat. no. 122661) and 0.03 ml of 35% (w/w) hydrogen peroxide solution in 100 ml of 0.1 M phosphate/0.08 M citrate buffer, pH 4.0. Color development was measured in a Titertek Multiscan MC plate reader in the dual wavelength mode at 405 nm against a reference wavelength of 492 nm.
To examine the effect of the amino acid substitutions observed in the Q1 and Q3 E2 HV domains on antibody binding, we synthesized a Q1 and Q3 specific 12-mer peptide from amino acids 396 to 407 (HVE Q1 or Q3 in FIG. 7B) and separately reacted the Q1 and Q3 plasma with each peptide in an ELISA.
On the technique in general: ELISA stands for enzyme-linked immunosorbent assay.

“Also recorded” adds a separate entry of the source.

As to “TAGFVRLFETGP [Q3 peptide, Q3 specific 12-mer peptide from amino acids 396 to 407 of the HCV E2/NS1 HV domain]”, the “binding of plasma to the peptide versus background binding to a panel of 12 randomly chosen control peptides (Student's Test)” value is “not statistically significant”. Further, the “Elisa Results on 12-mer Peptides, Mean” value (Q1 plasma) stood at 0.691. Moreover, the “Elisa Results on 12-mer Peptides, Mean” value (Q3 plasma) was 0.693.
“TARFAGFFQSGA [Q1 peptide, Q1 specific 12-mer peptide from amino acids 396 to 407 of the HCV E2/NS1 HV domain]”: the “binding of plasma to the peptide versus background binding to a panel of 12 randomly chosen control peptides (Student's Test)” value is listed as “significantly above background binding”. Further, the “reaction of antibodies in patient Q plasma with the peptide in ELISA” value (Q1 and Q3 plasma, peptides amino acids 396-407) is recorded as “reacted with the Q1 peptide; also recorded: developed an antibody response to the Q1 peptide”. Moreover, the “Elisa Results on 12-mer Peptides, Mean” value (Q1 plasma) worked out at 1.158. Moreover, the “Elisa Results on 12-mer Peptides, Mean” value (Q3 plasma) stood at 1.022.
